# Test results as given in patent US20100022457A1 (Bristol-Myers Squibb Company, priority 2006, published 2010).
# Like-named read-outs stand apart in the source and are kept apart here. Where a SMILES comes first, the peptide text is derived from it. [ ]: non-standard residue; d: D form. The star is where a group is joined. ξ: configuration not given here. Ala(6-(2-MePh)pyridin-3-yl) = Cc1ccccc1-c1ccc(C[C@H](N)C(=O)O)cn1; Phe(4-(2-Et-4-HO-Ph)) = CCc1cc(O)ccc1-c1ccc(C[C@H](N)C(=O)O)cc1; Bip(2'-Et-4'-OMe) = CCc1cc(OC)ccc1-c1ccc(C[C@H](N)C(=O)O)cc1; Lactoyl(3-(imidazol-4-yl)) = O=C([C@@H](O)Cc1c[nH]cn1)*; Bip(2'-Me) = Cc1ccccc1-c1ccc(C[C@H](N)C(=O)O)cc1; d(αMePhe(2-F)) = C[C@@](N)(Cc1ccccc1F)C(=O)O; αMePhe(2-F) = C[C@](N)(Cc1ccccc1F)C(=O)O; ξαMePhe(2-F) = CC(N)(Cc1ccccc1F)C(=O)O; Thr(3ξ) = CC(O)[C@H](N)C(=O)O; ξαMeP = CC1(C(=O)O)CCCN1; Aib = CC(C)(N)C(=O)O; Moc = COC(=O)*
# Assays:
# [1] = Dog pharmacokinetic study (intravenous and subcutaneous, 67 μg/kg); format: in vivo; conditions: for half-life: read-out: t½ (converted)
# Description: The pharmacokinetic parameters of the compound of SEQ ID NO:9 were determined in male beagle dogs (n=4, 14±1 kg). Following an overnight fast, each animal received the compound of SEQ ID NO:9 either as an intravenous bolus via femoral vein (67 μg/kg) or by subcutaneous injection given at near the shoulder blades (67 μg/kg). Each animal received both intravenous and subcutaneous doses with a one-week washout between doses following a crossover design. […] Serial blood samples were collected in EDTA-containing microcentrifuge tubes at predose, 0.083, 0.25, 0.5, 0.75, 1, 2, 4, 6, 8, 24, and 30 hours post-dose after intravenous administration; at predose, 0.25, 0.5, 0.75, 1, 2, 4, 6, 8, 24, and 30 hours post-dose after subcutaneous administration. Approximately 0.3 mL of blood was collected at each time point. Blood samples were immediately centrifuged at 4° C. The obtained plasma was frozen with dry ice and stored at −20° C. Plasma drug levels were determined using the LC-MS/MS assay described above.
# Plasma samples from in vivo dog study were prepared for analysis by precipitating plasma proteins with two volumes of acetonitrile containing an internal standard. The samples were vortex mixed and removed the precipitated proteins by centrifugation. The resulting supernatants were transferred to a 96-well plate and 10 μL were injected for analysis. Samples were prepared with the Packard Multiprobe II and Quadra 96 Liquid Handling System.
# The HPLC system consisted of two Shimadzu LC10AD pumps (Columbia, Md.), a CTC PAL autosampler (Leap Technologies, Switzerland). The column used was a YMC Hydrosphere C18 (2.0×50 mm, 3 μm) (YMC, Inc., Milford, Mass.). The column temperature was maintained at 50° C. and the flow rate was 0.3 mL/minute. The mobile phase A consisted of 10 mM ammonium formate and 0.1% formic acid in water and mobile phase B consisted of 0.1% formic acid in acetonitrile. The initial mobile phase composition was 5% B, and remained at 5% B for one minute to equilibrate the column. The composition was ramped to 95% B over two minutes and held there for one additional minute. The mobile phase was then returned to initial conditions in one minute. Total analysis time was five minutes. A switching valve was used. The eluents between 0-1 minute were diverted to the waste.
# The HPLC was interfaced to a Sciex API 4000 mass spectrometer, (Applied Biosystems, Foster City, Calif.) and was equipped with a TurboIonspray ionization source. Ultra high purity nitrogen was used as the nebulizing and turbo gas. The temperature of turbo gas was set at 300° C. and the interface heater was set at 60° C. Data acquisition utilized selected reaction monitoring (SRM). Ions representing the (M+2H)^2+ species for the compound of SEQ ID NO:9, and (M+2H)^2+ for BMS-501143 (IS) were selected in Q1 and were collisionally dissociated with high purity nitrogen at a pressure of 3.5×10^−3 torr to form specific product ions which were subsequently monitored by Q3.
# The standard curve concentrations, ranging from 1 to 1000 nM and from 4 to 5000 nM, were used for the in vivo samples obtained from low and high doses, respectively. The curves were fitted with a quadratic regression weighted by reciprocal […]. Standards were analyzed in duplicate. Quality control (QC) samples, prepared in blank matrix at the same concentrations as the standard were also analyzed in each analytical set. For the compound of SEQ ID NO:9, the calculated concentrations of more than 80% of the QCs were within 20% of nominal concentration, indicating acceptable assay performance.
# The compound of SEQ ID NO:9 plasma concentration vs. time data were analyzed by noncompartmental methods using the […]™ software program. The Cmax and Tmax values were recorded directly from experimental observations. The AUC0-n and AUCtot values were calculated using a combination of linear and log trapezoidal summations. […]
# [2] = Exposure during ipGTT in ob/ob mice; format: in vivo, mouse; conditions: sc
# C57BL/6J-ob/ob mice = assay: Intraperitoneal glucose tolerance test (ipGTT) in ob/ob mice after subcutaneous injection; format: in vivo, mouse; conditions: for effect on postprandial plasma glucose: sc in ob/ob mice, between 0 and 180 or 210 minutes; for Potency in ob/ob mice ED50: sc injection, plasma glucose AUC in ipGTT
# Description: Peptides were dissolved in an appropriate vehicle at a concentration in nmol/ml equivalent to the dose that was to be administered in nmol/kg so that each mouse would receive the same volume/weight of dosing solution. Male C57BL/6J-ob/ob mice (10 weeks old) were randomized into groups of 6 mice per group based on fed plasma glucose and body weight. After an overnight fast, mice were weighed and placed in the experimental lab. After 30 min in the environment, the mice were bled via tail tip at −30 min and immediately injected subcutaneously (sc) with vehicle or the peptide dissolved in vehicle (0.1 ml solution/100 g body weight). At time 0 the mice were bled and then injected intraperitoneally with 50% glucose (2 g/kg) to initiate the intraperitoneal glucose tolerance test (ipGTT). The mice were bled 30, 60, 120 and 180 min after the glucose injection. Blood samples were drawn into potassium EDTA, placed on ice during the study and subsequently centrifuged for 10 min at 3000 rpm at 4° C. Plasma samples were diluted 1-fold for glucose analysis in the Cobas System. Another 5 μl plasma sample was diluted 5-fold with 20 μl of Sample Diluent (Insulin ELISA assay kit, Crystal Chem Inc.) and stored at −20° C. for subsequent analysis using the Ultra Sensitive Mouse Insulin ELISA kit (Crystal Chem Inc.).
# [3] = Table II, vehicle propylene glycol/pH 7.4 phosphate buffer (1:1)
# [4] = Table I, vehicle propylene glycol/pH 7.4 phosphate buffer (1:1)
# [5] = Table I, vehicle 0.2 M Tris buffer (pH 8.0)
# [6] = male, beagle, plasma, 67 ug/kg, dog, intravenous 67 μg/kg, Tables 6B/6C, vehicle not given
# [7] = male, beagle, plasma, sc, 67 ug/kg, dog, subcutaneous 67 μg/kg, Tables 6B/6C (Table I footnote: 0.2 M Tris buffer pH 8.0)
"Exposure in dogs (sc@67 μg/kg) [1, 3]",Exposure/dose during ipGTT in ob/ob mice [2],"Exposure in dogs (sc@67 μg/kg) [1, 4]","Exposure in dogs (sc@67 μg/kg) [1, 5]",SMILES,effect on postprandial plasma glucose (C57BL/6J-ob/ob mice),Potency in ob/ob mice ED50 (C57BL/6J-ob/ob mice),other results
0.94 µM·h,,,,CCc1cc(OC)ccc1-c1ccc(C[C@H](NC(=O)[C@H](CC(=O)O)NC(=O)[C@H](CO)NC(=O)[C@@H](NC(=O)[C@](C)(Cc2ccccc2F)NC(=O)[C@@H](NC(=O)CNC(=O)[C@H](CCC(=O)O)NC(=O)[C@@H](C)NC(=O)[C@@H](N)Cc2c[nH]cn2)[C@@H](C)O)[C@@H](C)O)C(=O)N[C@@H](Cc2ccc(-c3ccccc3C)nc2)C(N)=O)cc1 [SEQ ID NO: 149] (H-H[dA]EGT[αMePhe(2-F)]TSD[Bip(2'-Et-4'-OMe)][Ala(6-(2-MePh)pyridin-3-yl)]-NH2),,,
,4.4 nM*h/nmol/kg,4.02 µM·h,,CCc1cc(OC)ccc1-c1ccc(C[C@H](NC(=O)[C@H](CC(=O)O)NC(=O)[C@H](CO)NC(=O)[C@@H](NC(=O)C(C)(Cc2ccccc2F)NC(=O)[C@@H](NC(=O)CNC(=O)[C@H](CCC(=O)O)NC(=O)C2(C)CCCN2C(=O)[C@@H](N)Cc2c[nH]cn2)[C@@H](C)O)[C@@H](C)O)C(=O)N[C@@H](Cc2ccc(-c3ccccc3C)nc2)C(N)=O)cc1 (stereo partly shown) [SEQ ID NO: 118] (H-H[ξαMeP]EGT[ξαMePhe(2-F)]TSD[Bip(2'-Et-4'-OMe)][Ala(6-(2-MePh)pyridin-3-yl)]-NH2),statistically significant decrease,2.5 nmol/kg,"plasma glucose AUC decrease (C57BL/6J-ob/ob mice; 30 nmol/kg sc, ipGTT ob/ob mice): 81%"
,16 nM*h/nmol/kg,,1.566 µM·h,CCc1cc(OC)ccc1-c1ccc(C[C@H](NC(=O)[C@H](CC(=O)O)NC(=O)[C@H](Cc2c[nH]cn2)NC(=O)[C@@H](NC(=O)C(C)(Cc2ccccc2F)NC(=O)[C@@H](NC(=O)CNC(=O)[C@H](CCC(=O)O)NC(=O)C2(C)CCCN2C(=O)[C@@H](O)Cc2c[nH]cn2)[C@@H](C)O)[C@@H](C)O)C(=O)N[C@@H](Cc2ccc(-c3ccccc3C)nc2)C(N)=O)cc1 (stereo partly shown) [SEQ ID NO: 151] ({Lactoyl(3-(imidazol-4-yl))}-[ξαMeP]EGT[ξαMePhe(2-F)]THD[Bip(2'-Et-4'-OMe)][Ala(6-(2-MePh)pyridin-3-yl)]-NH2),statistically significant decrease,,"AUC [1, 6]: 1.52 ± 0.424 µM·h; MRT [1, 6]: 4.4 ± 0.1 h; clearance ([1]; male, beagle, plasma, 67 ug/kg, dog, intravenous 67 μg/kg, Tables 6B/6C, vehicle not given, read-out: CLp): 0.49 ± 0.16 mL/min/kg; Vd ([1]; male, beagle, plasma, 67 ug/kg, dog, intravenous 67 μg/kg, Tables 6B/6C, vehicle not given, read-out: Vss): 0.13 ± 0.05 L/kg; half-life [1, 6]: 4 ± 0.2 h; AUC [1, 7]: 1.57 ± 0.235 µM·h; MRT [1, 7]: 5.8 ± 1 h; Tmax [1, 7]: 1.8 ± 0.5 h; bioavailability [1, 7]: 110 ± 41%; Cmax ([1]; male, beagle, plasma, sc, 67 ug/kg, dog, subcutaneous 67 μg/kg, Tables 6B/6C (Table I footnote: 0.2 M Tris buffer pH 8.0), read-out: Cmax): 252 ± 15 nM; half-life [1, 7]: 4.4 ± 1.4 h"
,11 nM*h/nmol/kg,,1.467 µM·h,CCc1cc(O)ccc1-c1ccc(C[C@H](NC(=O)[C@H](CC(=O)O)NC(=O)[C@H](CO)NC(=O)[C@@H](NC(=O)C(C)(Cc2ccccc2F)NC(=O)[C@@H](NC(=O)CNC(=O)[C@H](CCC(=O)O)NC(=O)C2(C)CCCN2C(=O)[C@H](Cc2c[nH]cn2)NC(=O)OC)[C@@H](C)O)[C@@H](C)O)C(=O)N[C@@H](Cc2ccc(-c3ccccc3C)nc2)C(N)=O)cc1 (stereo partly shown) [SEQ ID NO: 158] (Moc-H[ξαMeP]EGT[ξαMePhe(2-F)]TSD[Phe(4-(2-Et-4-HO-Ph))][Ala(6-(2-MePh)pyridin-3-yl)]-NH2),statistically significant decrease,,
0.089 µM·h,22 nM*h/nmol/kg,0.089 µM·h,,"CCc1cc(OC)ccc1-c1ccc(C[C@H](NC(=O)[C@H](CC(=O)O)NC(=O)[C@H](CO)NC(=O)[C@@H](NC(=O)[C@@](C)(Cc2ccccc2F)NC(=O)[C@@H](NC(=O)CNC(=O)[C@H](CCC(=O)O)NC(=O)C(C)(C)NC(=O)[C@@H](N)Cc2c[nH]cn2)C(C)O)C(C)O)C(=O)N[C@@H](Cc2ccc(-c3ccccc3C)cc2)C(N)=O)cc1 (stereo partly shown) [Compound I, reference compound] (H-H[Aib]EG[Thr(3ξ)][d(αMePhe(2-F))][Thr(3ξ)]SD[Bip(2'-Et-4'-OMe)][Bip(2'-Me)]-NH2)",,50 nmol/kg,"Potency in ob/ob mice: % AUC Reduction in Plasma Glucose in an IP Glucose Tolerance Test after SC Injection of Compound (C57BL/6J-ob/ob mice; 10 nmol/kg sc, relative to vehicle-treated group): −15% (p = 0.247, NS)"
